US20240174692A1, “PYRIMIDINE AROMATIC RING COMPOUNDS” (Medshine Discovery Inc., priority 2021, published 2024)
Where a name gives a salt, the structure may show the parent alone.

Legend:
p-ERK in GP2D cells = test: Assay of p-ERK inhibition in GP2D cells (HTRF); format: cell-based; details: Homo sapiens, 1 hour incubation
Procedure: 2. Assay Process • 1) GP2D cells were inoculated in a transparent 96-well cell culture plate, and each well contained 80 μL of cell suspension and 8000 cells. The cell plate was inoculated in a carbon dioxide incubator at 37° C. overnight; • 2) 2 μL of the compound was weighed and added to 78 μL of the cell medium. After the mixture was mixed thoroughly, 20 μL of the solution of compound was weighed and added to the corresponding well of the cell plate. The cell plate was placed back to the carbon dioxide incubator and incubated for another 1 hour; • 3) After completion of the incubation, the cell supernatant was discarded. 50 μL of 1× cell lysate was added to each well. The mixture was incubated with shaking at room temperature for 30 minutes; • 4) Phospho-ERK1/2 Eu Cryptate antibody and Phospho-ERK1/2 d2 antibody were diluted 20-fold with detection buffer; • 5) 16 μL of cell lysate supernatant was weighed and added into each well of a new 384 white microwell plate, and then 2 μL of the diluted solution of Phospho-ERK1/2 Eu Cryptate antibody and 2 μL of the diluted solution of Phospho-ERK1/2 d2 antibody dilution were added. The mixture was incubated at room temperature for at least 4 hours; • 6) After completion of the incubation, HTRF was read with multi-label analyzer: excitation: 320 nm, emission: 615 nm, 665 nm; • 7). IC50 of the compounds to be assayed was calculated.

[1] = biological target: KRAS^G12D binding to c-Raf (Homo sapiens (Human), UniProt P01116, G12D); test: SOS1-mediated binding of KRAS^G12D to effector protein c-Raf (TR-FRET); format: biochemical
Chain of KRAS^G12D binding to c-Raf (P01116-2 other isoform, or with tags, fused parts or gaps G12D): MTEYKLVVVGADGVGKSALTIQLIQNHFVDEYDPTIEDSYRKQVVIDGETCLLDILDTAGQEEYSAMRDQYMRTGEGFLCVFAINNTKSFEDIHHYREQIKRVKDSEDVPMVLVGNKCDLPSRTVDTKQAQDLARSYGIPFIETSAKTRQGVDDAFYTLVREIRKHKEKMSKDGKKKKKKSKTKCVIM

KRAS^G12D = KRAS^G12D (Homo sapiens (Human), UniProt P01116, G12D); test: Assay of the activity of inhibiting KRAS^G12D (TR-FRET, SOS/GTP nucleotide exchange); format: biochemical
Chain of KRAS^G12D (P01116-2 other isoform, or with tags, fused parts or gaps G12D): as above

p-ERK in AGS cells = test: Assay of p-ERK inhibition in AGS cells (HTRF); format: cell-based; details: Homo sapiens, 3 hours incubation
Procedure: 1) AGS cells were inoculated in a transparent 96-well cell culture plate, and each well contained 80 μL of cell suspension and 10000 cells. The cell plate was inoculated in a carbon dioxide incubator at 37° C. overnight; • 2) After completion of the incubation, the cell supernatant was discarded. 80 μL of medium containing 0.02% serum was added to each well. The cell plate was incubated in a carbon dioxide incubator at 37° C. overnight; • 3) 2 μL of the compound was weighed and added to 78 μL of the cell medium. After the mixture was mixed thoroughly, 20 μL of the solution of compound was weighed and added to the corresponding well of the cell plate. The cell plate was placed back to the carbon dioxide incubator and incubated for another 3 hours; • 4) After completion of the incubation, the cell supernatant was discarded. 50 μL of 1× cell lysate was added to each well. The mixture was incubated with shaking at room temperature for 30 minutes; • 5) Phospho-ERK1/2 Eu Cryptate antibody and Phospho-ERK1/2 d2 antibody were diluted 20-fold with detection buffer; • 6) 16 μL of cell lysate supernatant was weighed and added into each well of a new 384 white microwell plate, and then 2 μL of the diluted solution of Phospho-ERK1/2 Eu Cryptate antibody and 2 μL of the diluted solution of Phospho-ERK1/2 d2 antibody dilution were added. The mixture was incubated at room temperature for at least 4 hours; • 7) After completion of the incubation, HTRF was read with multi-label analyzer: excitation: 320 nm, emission: 615 nm, 665 nm; • 8). IC50 of the compounds to be assayed was calculated.

[2] = system: KRAS G12D mutated GP2D cells; test: Assay of inhibition of GP2D cell proliferation (CellTiter-Glo 3D); format: cell-based; details: Homo sapiens, 120 h, 5 days
Procedure: The aim of this assay was to verify the inhibitory effect of the compounds of the present disclosure on the proliferation of KRAS G12D mutated GP2D human […] cancer cells.
Cell line GP2D, DMEM medium, and penicillin/streptomycin antibiotics were purchased from Wisent; fetal bovine serum was purchased from Biosera; and CellTiter-Glo® 3D Cell Viability Assay (3D cell viability chemiluminescence assay reagent) reagent was purchased from Promega.
GP2D cells were seeded in a 96-well U-bottom cell culture plate. Each well contained 80 μL of cell suspension containing 2000 GP2D cells. The cell plate was incubated overnight in a CO2 incubator. The compound to be assayed was serially diluted 5-fold with a pipette to the 8th concentration, i.e. diluted from 200 μM to 2.56 nM, to set up a double replicate well assay. 78 μL of medium was added to the middle plate, and then 2 μL per well of the gradient dilution compound was transferred to the middle plate according to the corresponding position. The mixture was mixed well and 20 μL per well was transferred to the cell plate. The concentration of compound transferred to the cell plate ranged from 1 μM to 0.0128 nM. The cell plate was incubated in a CO2 incubator for 5 days. At the end of the incubation of the plate with compounds added, 100 μL of cell viability chemiluminescence detection reagent per well was added to the plate and the plate was incubated at room temperature for 10 minutes to stabilize the luminescence signal. Reading was performed using a multi-label analyzer.
The raw data were converted into an inhibition rate by using an equation (Sample−Min)/(Max−Min)*100%. IC50 value can be obtained by curve fitting with four parameters (“log(inhibitor) vs. response—Variable slope” model in GraphPad Prism).

[3] = Pharmacokinetic evaluation of compounds in mice; format: in vivo, CD-1 mice; details: CD-1 male mice
Procedure: Purpose of assay: To assay the pharmacokinetic data of the compounds in CD-1 mice in vivo.
(§1) Compounds were mixed with vehicle 5% DMSO/95% (10% HP-β-CD aqueous solution), and the mixture was vortexed and sonicated to give 0.2 mg/mL-0.3 mg/mL clear solutions. CD-1 male mice aged 7 to 10 weeks were selected, and the candidate compound solution was administered intravenously. Whole blood was collected for a certain period of time to prepare the plasma. The drug concentration was analyzed by LC-MS/MS method and pharmacokinetic parameters were calculated by Phoenix WinNonlin software (Pharsight, USA).
as §1, with “in water),” for “aqueous solution),”, “1.6 mg/mL to 4.0” for “0.2 mg/mL-0.3”, “orally administered.” for “administered intravenously.”, “prepare” for “prepare the”, “method,” for “method”

plasma protein [4] = test: Plasma protein binding (PPB), equilibrium dialysis, D plasma; format: in vitro ADME, dog; details: 2 μM, 4 hr dialysis
Procedure: (§2) Assay procedure: 995 μL of blank plasma of various genera were weighed, and 5 μL of assay compound working solution (400 μM) or warfarin working solution (400 μM) was added so that the final concentrations of the assay compound and warfarin in plasma sample were each 2 μM. The samples were mixed thoroughly. The final concentration of DMSO (the organic phase) was 0.5%. 50 μL of the plasma samples of the assay compound and warfarin were pipetted to a sample receiving plate (in triplicate), and the corresponding volume of corresponding blank plasma or buffer was added immediately, so that the final volume in each sample well was 100 μL, wherein the volume ratio of plasma:dialysis buffer was 1:1. 500 μL of stop solution was then added to these samples. These samples were used as T0 samples for determination of recovery and stability. […] All samples were subjected to protein precipitation, and then analyzed by LC/MS/MS. Bound rate and recovery rate of protein were calculated using the following formulae: % Unbound=100*F/T % Bound=100−% Unbound, % Recovery=100*(F+T)/T0 (wherein F is the peak area ratio of the compound in the dialysate after 4 h of dialysis; T is the peak area ratio of the compound in the plasma after 4 h of dialysis; T0 is the peak area ratio of the compound in the plasma sample at time zero).

plasma protein [5] = test: Plasma protein binding (PPB), equilibrium dialysis, R plasma; format: in vitro ADME, rat; details: 2 μM, 4 hr dialysis
Procedure: as §2

plasma protein [6] = test: Plasma protein binding (PPB), equilibrium dialysis, H plasma; format: in vitro ADME, human; details: 2 μM, 4 hr dialysis
Procedure: as §2

plasma protein [7] = test: Plasma protein binding (PPB), equilibrium dialysis, C plasma; format: in vitro ADME, monkey; details: 2 μM, 4 hr dialysis
Procedure: as §2

plasma protein [8] = test: Plasma protein binding (PPB), equilibrium dialysis, M plasma; format: in vitro ADME, mouse; details: 2 μM, 4 hr dialysis
Procedure: as §2

C#Cc1c(F)ccc2cc(N)cc(-c3c(Cl)cc4c(N5CC6CCC(C5)N6)nc(OC[C@@]56CCCN5C[C@H](F)C6)nc4c3F)c12 (single isomer, unassigned) [Compound 016B]
IC50 (p-ERK in GP2D cells): 0.67 nM | IC50 [1]: 6.23 nM

Oc1cc(-c2c(Cl)cc3c(N4CC5CCC(C4)N5)nc(OC[C@@]45CCCN4C[C@H](F)C5)nc3c2F)c2ccccc2c1 (single isomer, unassigned) [Compound 027 hydrochloride]
IC50 (KRAS^G12D): 38.6 nM

Oc1cc(-c2c(Cl)cc3c(N4CC5CCC(C4)N5)nc(OC[C@@]45CCCN4C[C@H](F)C5)nc3c2F)c2ccccc2c1 [Compound 001 formate]
IC50 (KRAS^G12D): 9.2 nM | IC50 (p-ERK in AGS cells): 292 nM

Nc1nc2c(-c3c(Cl)cc4c(N5CC6CCC(C5)N6)nc(OC[C@@]56CCCN5C[C@H](F)C6)nc4c3F)ccc(F)c2s1 [Compound 004]
IC50 (KRAS^G12D): 0.5 nM | IC50 (p-ERK in AGS cells): 31.4 nM

Oc1cc(-c2ccc3c(N4CC5CCC(C4)N5)nc(OC[C@@]45CCCN4C[C@H](F)C5)nc3c2F)c2ccccc2c1 [Compound 005 hydrochloride]
IC50 (KRAS^G12D): 0.1 nM | IC50 (p-ERK in AGS cells): 147 nM

CCc1c(F)ccc2cc(O)cc(-c3ccc4c(N5CC6CCC(C5)N6)nc(OC[C@@]56CCCN5C[C@H](F)C6)nc4c3F)c12 [Compound 006 hydrochloride]
IC50 [2]: 2.04 nM | IC50 (p-ERK in AGS cells): 67.1 nM

Nc1nc2c(-c3c(F)cc4c(N5CC6CCC(C5)N6)nc(OC[C@@]56CCCN5C[C@H](F)C6)nc4c3Cl)ccc(F)c2s1 [Compound 007 hydrochloride]
IC50 (KRAS^G12D): 0.4 nM

Oc1cc(-c2c(F)cc3c(N4CC5CCC(C4)N5)nc(OC[C@@]45CCCN4C[C@H](F)C5)nc3c2Cl)c2ccccc2c1 [Compound 008 hydrochloride]
IC50 (KRAS^G12D): 1.3 nM

C#Cc1c(F)ccc2cc(O)cc(-c3ccc4c(N5CC6CCC(C5)N6)nc(OC[C@@]56CCCN5C[C@H](F)C6)nc4c3F)c12 [Compound 010 hydrochloride]
IC50 (p-ERK in GP2D cells): 0.055 nM | AUCu ([3]; PO, 5.54 mg/kg, AUCu = AUC0-inf *Unbound PPB (Mouse)): 2.5 nM·h | AUC(0-inf) ([3]; mouse, plasma, PO, 5.54 mg/kg): 0.125 µM·h | Cmax ([3]; mouse, plasma, PO, 5.54 mg/kg): 54 nM | bioavailability ([3]; mouse, plasma, PO, 5.54 mg/kg): 5.1% | half-life ([3]; mouse, plasma, PO, 5.54 mg/kg): 96 min | IC50 [2]: 3.6 nM

C#Cc1c(F)ccc2cc(O)cc(-c3ccc4c(N5CC6CCC(C5)N6)nc(OC[C@@]56CCCN5C[C@H](F)C6)nc4c3F)c12 [Compound 010]
Unbound PPB D (plasma protein [4]): 2.2% | Unbound PPB R (plasma protein [5]): 1.3% | Unbound PPB H (plasma protein [6]): 2.9% | AUC(0-inf) ([3]; mouse, plasma, IV, 1.03 mg/kg): 0.457 µM·h | C0 ([3]; mouse, plasma, IV, 1.03 mg/kg): 712 nM | Vd ([3]; mouse, plasma, IV, 1.03 mg/kg): 25 L/kg | clearance ([3]; mouse, plasma, IV, 1.03 mg/kg): 61.4 mL/min/kg | half-life ([3]; mouse, plasma, IV, 1.03 mg/kg): 486 min | Unbound PPB C (plasma protein [7]): 1.9% | Unbound PPB M (plasma protein [8]): 2.0%

Oc1cc(-c2ccc3c(N4CC5CCC(C4)N5)nc(OC[C@@]45CCCN4C[C@H](F)C5)nc3c2F)c2c(F)c(F)ccc2c1 [Compound 011 hydrochloride]
IC50 (p-ERK in GP2D cells): 0.016 nM | IC50 [2]: 6.2 nM

N#Cc1c(N)sc2c(F)ccc(-c3c(Cl)cc4c(N5CC6CCC(C5)N6)nc(OC[C@@]56CCCN5C[C@H](F)C6)nc4c3F)c12 [Compound 012 formate]
IC50 (p-ERK in GP2D cells): 0.71 nM | IC50 [2]: 0.94 nM

Nc1cc(-c2ccc3c(N4CC5CCC(C4)N5)nc(OC[C@@]45CCCN4C[C@H](F)C5)nc3c2F)c2c(F)c(F)ccc2c1 [Compound 013 hydrochloride]
IC50 (p-ERK in GP2D cells): 0.88 nM

Cc1cc(N)nc(-c2c(Cl)cc3c(N4CC5CCC(C4)N5)nc(OC[C@@]45CCCN4C[C@H](F)C5)nc3c2F)c1C(F)(F)F [Compound 018 trifluoroacetate]
IC50 (p-ERK in GP2D cells): 1.6 nM

Cc1cc(N)nc(-c2ccc3c(N4CC5CCC(C4)N5)nc(OC[C@@]45CCCN4C[C@H](F)C5)nc3c2F)c1C(F)(F)F [Compound 019 hydrochloride]
IC50 (p-ERK in GP2D cells): 21.4 nM

Nc1nc2c(-c3c(F)cc4c(N5CC6CCC(C5)N6)nc(OC[C@@]56CCCN5C[C@H](F)C6)nc4c3F)ccc(F)c2s1 [Compound 020 formate]
IC50 (KRAS^G12D): 6.6 nM

Cc1cc(N)c(F)c(-c2c(Cl)cc3c(N4CC5CCC(C4)N5)nc(OC[C@@]45CCCN4C[C@H](F)C5)nc3c2F)c1C(F)(F)F [Compound 022 formate]
IC50 (p-ERK in GP2D cells): 11.6 nM

CCc1c(F)ccc2cc(O)cc(-c3ccc4c(N5CC6CCC(C5)N6)nc(OC[C@@]56CCCN5C[C@H](F)C6)nc4c3Cl)c12 [Compound 024 formate]
IC50 (p-ERK in GP2D cells): 4.4 nM | IC50 [2]: 16 nM

C#Cc1c(F)ccc2cc(N)cc(-c3c(F)cc4c(N5CC6C=CC(C5)N6)nc(OC[C@@]56CCCN5C[C@H](F)C6)nc4c3F)c12 [Compound 034]
IC50 [1]: 22.5 nM
